Among the test systems are DU-145; EKVX; K562; KM12; MDA-MB-231; MDA-MB-435; NCI-H226; NCI-H23; NCI/ADR-RES; SF-295; SK-MEL-5; SK-OV-3; SNB-19; SR; SW-620; T47D; TK-10; UO-31; KM-20L2.
Holding throughout (assay): inhibition of tumour cell growth, NCI panel, 48 h

The structures appear in SMILES notation.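 Cultured in 96-well plates, cells were exposed to test compound for 48 hours across five concentrations. Abbreviation: GI50, concentration required for 50% inhibition of growth.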 Active and inactive are the calls of the source. Rule as the data show it: active = GI50 up to about 1.1 µM and inactive = higher.

Turning to `ON(CCc1ccccn1)Cc1ccccc1`, the GI50 is > 100 µM (inactive) in the test with DU-145; > 100 µM (inactive) with EKVX; 31.7 µM (inactive) with K562; > 100 µM (inactive) in the test with KM12; > 100 µM (inactive) with MDA-MB-231; > 100 µM (inactive) with MDA-MB-435. Also, the GI50 in the test on NCI-H226, in the test with NCI-H23, in the test with NCI/ADR-RES, in the test with SF-295, with SK-MEL-5 and in the test with SK-OV-3 was > 100 µM (inactive) in each case. The GI50 with SNB-19, in the test with SR, in the test with SW-620, in the test with T47D, with TK-10 and in the test with UO-31 was > 100 µM (inactive) throughout.
With `O=C(O)c1cccc(C(=O)O)c1[S+]([O-])Cc1ccccc1` (stereo not given), the GI50 with DU-145, with EKVX, in the test on K562, with KM12, in the test on MDA-MB-231 and in the test on MDA-MB-435 was > 100 µM (inactive) each time. Also, the GI50 with NCI-H226, in the test with NCI-H23, in the test on NCI/ADR-RES, with SF-295, with SK-MEL-5 and in the test on SK-OV-3 was > 100 µM (inactive) in each case. Moreover, the GI50 in the test with SNB-19, in the test on SR, in the test on SW-620, with T47D, in the test with TK-10 and in the test on UO-31 was > 100 µM (inactive) throughout.
On to `Cc1ccc(C2[C@H]3C(=O)N(c4ccc(Cc5ccc(N6C(=O)[C@@H]7ON(c8ccccc8)C(c8ccc(C)cc8)[C@@H]7C6=O)cc5)cc4)C(=O)[C@H]3ON2c2ccccc2)cc1` (stereo not given in full), for which the GI50 in the test with K562, with KM-20L2, in the test on KM12, with NCI-H226, in the test on NCI-H23 and in the test on SF-295 was > 100 µM (inactive) in each case. The GI50 with SK-MEL-5, in the test on SK-OV-3, in the test on SW-620 and with UO-31 was > 100 µM (inactive) in each case.
Regarding `O=C(c1ccccc1)c1c(-c2ccccc2)[nH]n(-c2ccc([N+](=O)[O-])cc2)c(=O)c1=O`, the GI50 in the test with DU-145 was > 100 µM (inactive); in the test with EKVX, 91 µM (inactive); in the test on K562, 41.5 µM (inactive); with KM12, 94.8 µM (inactive); with MDA-MB-231, 30.1 µM (inactive); in the test on MDA-MB-435, 75.2 µM (inactive). The GI50 in the test with NCI-H226 was 39.7 µM (inactive); in the test on NCI-H23 it was 0.2 µM (active); with NCI/ADR-RES, 49.5 µM (inactive); in the test with SF-295, 46.8 µM (inactive); in the test with SK-MEL-5 it was > 100 µM (inactive); in the test on SK-OV-3, 36.9 µM (inactive). In addition, the GI50 with SNB-19 is 6.47 µM (inactive); in the test on SR, 35.5 µM (inactive); with SW-620, 42.6 µM (inactive); in the test on T47D it was 81.8 µM (inactive); in the test with TK-10, 91.8 µM (inactive); in the test on UO-31, 32.1 µM (inactive).
With `N#CC(C#N)=C1C(C#N)=C(N)NC12OCCO2`, the GI50 in the test with DU-145, with EKVX, with K562, with KM12, in the test on MDA-MB-231 and in the test on MDA-MB-435 was > 100 µM (inactive) in each case. Moreover, the GI50 in the test with NCI-H226, in the test with NCI-H23, with NCI/ADR-RES, in the test with SF-295, in the test with SK-MEL-5 and in the test on SK-OV-3 was > 100 µM (inactive) in each case. Further, the GI50 in the test with SNB-19, with SR, with SW-620, in the test with T47D, in the test on TK-10 and in the test on UO-31 was > 100 µM (inactive) each time.
As to `O=C1C(=O)c2c(oc(=O)c3ccccc23)-c2ccccc21`, the GI50 was > 25 µM (inactive) in the test on DU-145; > 25 µM (inactive) with EKVX; > 25 µM (inactive) in the test on K562; > 25 µM (inactive) in the test with KM12; > 25 µM (inactive) in the test on MDA-MB-231; 6.75 µM (inactive) with MDA-MB-435. In addition, the GI50 in the test on NCI-H226 is > 25 µM (inactive); in the test on NCI-H23, 18 µM (inactive); in the test on NCI/ADR-RES it was 22.9 µM (inactive); in the test with SF-295, > 25 µM (inactive); in the test with SK-MEL-5 it was 12.6 µM (inactive); in the test with SK-OV-3 it was > 25 µM (inactive). The GI50 in the test with SNB-19 was > 25 µM (inactive); in the test with SR, > 25 µM (inactive); in the test with SW-620, 22.2 µM (inactive); with T47D it was > 25 µM (inactive); in the test on TK-10, > 25 µM (inactive); with UO-31, > 25 µM (inactive).
On to `COc1ccc2cc(CNCCCCCCNCc3ccc4cc(OC)ccc4c3)ccc2c1`, for which the GI50 with DU-145 was 1.58 µM (inactive); in the test on EKVX it was 1.39 µM (inactive); with K562, 0.0897 µM (active); in the test on KM12 it was 0.221 µM (active); in the test on MDA-MB-231 it was 0.465 µM (active); with MDA-MB-435, 0.204 µM (active). The GI50 with NCI-H226 is 1.8 µM (inactive); in the test with NCI-H23, 2.11 µM (inactive); in the test on NCI/ADR-RES it was 1.44 µM (inactive); in the test on SF-295, 0.486 µM (active); with SK-MEL-5, 1.33 µM (inactive); in the test on SK-OV-3, 1.85 µM (inactive). The GI50 is 0.785 µM (active) in the test on SNB-19; 0.184 µM (active) in the test on SR; 0.182 µM (active) in the test with SW-620; 0.452 µM (active) with T47D; 1.8 µM (inactive) in the test on TK-10; 1.63 µM (inactive) with UO-31.
Consider `COC(=O)[C@]12CC[C@H]3CN(C(=O)OCc4ccccc4)[C@H]([C@H]31)[C@H](c1ccccc1)N2`, for which the GI50 was > 100 µM (inactive) with DU-145; 53.5 µM (inactive) in the test on EKVX; 58.1 µM (inactive) in the test on K562; 72.6 µM (inactive) in the test with KM12; 59.3 µM (inactive) in the test with MDA-MB-231; 52 µM (inactive) with MDA-MB-435. Besides, the GI50 in the test on NCI-H226 is 86.7 µM (inactive); in the test on NCI-H23 it was 77.4 µM (inactive); in the test with NCI/ADR-RES, 64.6 µM (inactive); in the test with SF-295, 58.1 µM (inactive); with SK-MEL-5, 22.9 µM (inactive); in the test on SK-OV-3, > 100 µM (inactive). Further, the GI50 in the test with SNB-19 is > 100 µM (inactive); with SR, 42.2 µM (inactive); in the test with SW-620, > 100 µM (inactive); in the test on T47D it was 34.3 µM (inactive); in the test with TK-10 it was > 100 µM (inactive); in the test with UO-31 it was 67.3 µM (inactive).
Turning to `O=c1c2ccccc2n2n1Cc1ccccc1C2`, the GI50 was > 100 µM (inactive) in the test on DU-145; 35.6 µM (inactive) with EKVX; > 100 µM (inactive) in the test on K562; > 100 µM (inactive) with KM12; > 100 µM (inactive) with MDA-MB-231; > 100 µM (inactive) in the test on MDA-MB-435. Further, the GI50 in the test on NCI-H226, in the test on NCI-H23, in the test with NCI/ADR-RES, in the test with SF-295, in the test with SK-MEL-5 and in the test with SK-OV-3 was > 100 µM (inactive) in each case. The GI50 was > 100 µM (inactive) in the test with SNB-19; > 100 µM (inactive) in the test on SR; > 100 µM (inactive) in the test on SW-620; > 100 µM (inactive) with T47D; > 100 µM (inactive) in the test with TK-10; 86.3 µM (inactive) in the test with UO-31.
Regarding `CCOC(=O)C(Cl)(NC(=O)c1c(F)c(F)c(F)c(F)c1F)C(F)(F)F` (stereo not given), the GI50 with DU-145 was > 100 µM (inactive); with EKVX it was 75.9 µM (inactive); in the test with K562, > 100 µM (inactive); in the test on KM12, > 100 µM (inactive); in the test with MDA-MB-231, > 100 µM (inactive); in the test with MDA-MB-435 it was > 100 µM (inactive). Also, the GI50 with NCI-H226, in the test with NCI-H23, with NCI/ADR-RES, in the test with SF-295, with SK-MEL-5 and in the test with SK-OV-3 was > 100 µM (inactive) each time. In addition, the GI50 in the test with SNB-19 is > 100 µM (inactive); with SR, 9.4 µM (inactive); in the test on SW-620, > 100 µM (inactive); in the test on T47D, > 100 µM (inactive); in the test on TK-10 it was > 100 µM (inactive); with UO-31 it was > 100 µM (inactive).
As to `CC(C)=CCC/C(C)=C/CC/C(C)=C/CC(CO)N(C)CC/C=C(\C)CCC=C(C)C` (stereo not given), the GI50 with DU-145 was 11.5 µM (inactive); with EKVX it was 10.4 µM (inactive); in the test with K562, 1.6 µM (inactive); with KM12 it was 3.94 µM (inactive); in the test on MDA-MB-231, 9.86 µM (inactive); in the test with MDA-MB-435, 3.93 µM (inactive). Further, the GI50 was 13.7 µM (inactive) with NCI-H226; 7.96 µM (inactive) in the test on NCI-H23; 4.62 µM (inactive) with NCI/ADR-RES; 7.1 µM (inactive) with SF-295; 8.39 µM (inactive) in the test with SK-MEL-5; 14.9 µM (inactive) in the test with SK-OV-3. In addition, the GI50 in the test on SNB-19 was 8.91 µM (inactive); in the test on SR, 2.17 µM (inactive); in the test with SW-620, 3.62 µM (inactive); in the test with T47D, 3.64 µM (inactive); in the test with TK-10 it was 9.53 µM (inactive); with UO-31 it was 4.65 µM (inactive).
